# Reference: the OligoGym collection
# HELM strings list units from the 5' end as sugar, base in round brackets, then linkage (d deoxyribose, r ribose, m 2'-O-methyl, p phosphodiester). Strings are as the collection lists them; they lack the last nucleoside at the 3' end of the tested compound. [moe] = 2'-O-(2-methoxyethyl) (MOE); [sp] = phosphorothioate linkage; [m5C] = 5-methylcytosine
# Molecular target: LRRK2
# Assay: mouse, dose not given
# Conditions: ASO
row,Substance,3 h FOB score
1,RNA1{[moe](T)[sp].[moe]([m5C])p.[moe](A)p.[moe]([m5C])p.[moe]([m5C])[sp].d(A)[sp].d([m5C])[sp].d(A)[sp].d(A)[sp].d(A)[sp].d([m5C])[sp].d(T)[sp].d([m5C])[sp].d(A)[sp].d(T)[sp].[moe](G)p.[moe](G)p.[moe](A)[sp].[moe]([m5C])}$$$$ (last 3' nucleoside missing),3 score 0-7
2,RNA1{[moe](A)[sp].[moe]([m5C])p.[moe]([m5C])p.[moe]([m5C])p.[moe](T)[sp].d(T)[sp].d(T)[sp].d([m5C])[sp].d([m5C])[sp].d(A)[sp].d(T)[sp].d(G)[sp].d(T)[sp].d(G)[sp].d(A)[sp].[moe](A)p.[moe]([m5C])p.[moe](A)[sp].[moe](T)}$$$$ (last 3' nucleoside missing),4 score 0-7
3,RNA1{[moe](A)[sp].[moe](T)p.[moe](T)p.[moe](G)p.[moe]([m5C])[sp].d(A)[sp].d(A)[sp].d(T)[sp].d(G)[sp].d(T)[sp].d(T)[sp].d(T)[sp].d([m5C])[sp].d(A)[sp].d(A)[sp].[moe](T)p.[moe](A)p.[moe](T)[sp].[moe](G)}$$$$ (last 3' nucleoside missing),1 score 0-7
4,RNA1{[moe]([m5C])[sp].[moe](G)p.[moe]([m5C])p.[moe](A)p.[moe]([m5C])[sp].d(T)[sp].d(T)[sp].d(A)[sp].d(A)[sp].d([m5C])[sp].d(A)[sp].d(A)[sp].d(T)[sp].d(A)[sp].d(T)[sp].[moe]([m5C])p.[moe](A)p.[moe](T)[sp].[moe](A)}$$$$ (last 3' nucleoside missing),0 score 0-7
5,RNA1{[moe](T)[sp].[moe]([m5C])p.[moe](T)[sp].[moe](T)[sp].[moe]([m5C])[sp].d(A)[sp].d(G)[sp].d(T)[sp].d(T)[sp].d([m5C])[sp].d([m5C])[sp].d(T)[sp].d(T)[sp].d([m5C])[sp].d(A)[sp].[moe](G)[sp].[moe](T)p.[moe]([m5C])[sp].[moe](T)}$$$$ (last 3' nucleoside missing),3 score 0-7
6,RNA1{[moe](A)[sp].[moe](T)p.[moe](T)[sp].[moe]([m5C])[sp].[moe](G)[sp].d(G)[sp].d(T)[sp].d(T)[sp].d(A)[sp].d(T)[sp].d(A)[sp].d(A)[sp].d(G)[sp].d(G)[sp].d([m5C])[sp].[moe](A)[sp].[moe]([m5C])p.[moe](A)[sp].[moe](G)}$$$$ (last 3' nucleoside missing),5 score 0-7
7,RNA1{[moe](A)[sp].[moe](G)p.[moe](T)p.[moe](T)[sp].[moe]([m5C])[sp].d([m5C])[sp].d(T)[sp].d(T)[sp].d([m5C])[sp].d(A)[sp].d(G)[sp].d(T)[sp].d([m5C])[sp].d(T)[sp].d([m5C])[sp].[moe](A)p.[moe](A)p.[moe](G)[sp].[moe](G)}$$$$ (last 3' nucleoside missing),7 score 0-7
8,RNA1{[moe](G)[sp].[moe](A)p.[moe](A)[sp].[moe]([m5C])[sp].[moe](T)[sp].d(T)[sp].d(T)[sp].d(A)[sp].d(T)[sp].d(A)[sp].d(T)[sp].d(A)[sp].d(T)[sp].d(A)[sp].d(G)[sp].[moe](T)[sp].[moe](T)p.[moe](A)[sp].[moe](T)}$$$$ (last 3' nucleoside missing),2 score 0-7
9,RNA1{[moe](T)[sp].[moe](T)p.[moe](A)[sp].[moe](A)[sp].[moe]([m5C])[sp].d(A)[sp].d(A)[sp].d(T)[sp].d(A)[sp].d(T)[sp].d([m5C])[sp].d(A)[sp].d(T)[sp].d(A)[sp].d(T)[sp].[moe](A)[sp].[moe](A)p.[moe](T)[sp].[moe]([m5C])}$$$$ (last 3' nucleoside missing),0 score 0-7
10,RNA1{[moe](G)[sp].[moe]([m5C])p.[moe]([m5C])p.[moe]([m5C])p.[moe](A)[sp].d(G)[sp].d([m5C])[sp].d([m5C])[sp].d(A)[sp].d(A)[sp].d(A)[sp].d(T)[sp].d(G)[sp].d([m5C])[sp].d(T)[sp].[moe](T)p.[moe](G)p.[moe]([m5C])[sp].[moe](A)}$$$$ (last 3' nucleoside missing),0 score 0-7
11,RNA1{[moe](A)[sp].[moe]([m5C])p.[moe](G)[sp].[moe]([m5C])[sp].[moe](A)[sp].d([m5C])[sp].d(T)[sp].d(T)[sp].d(A)[sp].d(A)[sp].d([m5C])[sp].d(A)[sp].d(A)[sp].d(T)[sp].d(A)[sp].[moe](T)[sp].[moe]([m5C])p.[moe](A)[sp].[moe](T)}$$$$ (last 3' nucleoside missing),1 score 0-7
12,RNA1{[moe](T)[sp].[moe](T)p.[moe]([m5C])p.[moe](A)p.[moe](G)[sp].d(T)[sp].d(T)[sp].d([m5C])[sp].d([m5C])[sp].d(T)[sp].d(T)[sp].d([m5C])[sp].d(A)[sp].d(G)[sp].d(T)[sp].[moe]([m5C])p.[moe](T)p.[moe]([m5C])[sp].[moe](A)}$$$$ (last 3' nucleoside missing),4 score 0-7
13,RNA1{[moe](A)[sp].[moe](G)p.[moe](T)[sp].[moe](G)[sp].[moe]([m5C])[sp].d(A)[sp].d(T)[sp].d(G)[sp].d(G)[sp].d([m5C])[sp].d(A)[sp].d(T)[sp].d([m5C])[sp].d(A)[sp].d(A)[sp].[moe](A)[sp].[moe](A)p.[moe](A)[sp].[moe](T)}$$$$ (last 3' nucleoside missing),2 score 0-7
14,RNA1{[moe]([m5C])[sp].[moe](T)p.[moe](T)p.[moe]([m5C])p.[moe](A)[sp].d(G)[sp].d(T)[sp].d(T)[sp].d([m5C])[sp].d([m5C])[sp].d(T)[sp].d(T)[sp].d([m5C])[sp].d(A)[sp].d(G)[sp].[moe](T)p.[moe]([m5C])p.[moe](T)[sp].[moe]([m5C])}$$$$ (last 3' nucleoside missing),4 score 0-7
15,RNA1{[moe]([m5C])[sp].[moe]([m5C])p.[moe](A)p.[moe]([m5C])p.[moe](A)[sp].d(A)[sp].d(A)[sp].d([m5C])[sp].d(T)[sp].d([m5C])[sp].d(A)[sp].d(T)[sp].d(G)[sp].d(G)[sp].d(A)[sp].[moe]([m5C])p.[moe](T)p.[moe](T)[sp].[moe]([m5C])}$$$$ (last 3' nucleoside missing),6 score 0-7
16,RNA1{[moe]([m5C])[sp].[moe](T)p.[moe](G)[sp].[moe](T)[sp].[moe](T)[sp].d(A)[sp].d(T)[sp].d(T)[sp].d([m5C])[sp].d(T)[sp].d(G)[sp].d(A)[sp].d(T)[sp].d([m5C])[sp].d(A)[sp].[moe]([m5C])[sp].[moe](A)p.[moe]([m5C])[sp].[moe](G)}$$$$ (last 3' nucleoside missing),5 score 0-7
17,RNA1{[moe](T)[sp].[moe](G)p.[moe]([m5C])[sp].[moe](T)[sp].[moe](T)[sp].d(T)[sp].d([m5C])[sp].d(A)[sp].d(T)[sp].d(A)[sp].d(G)[sp].d([m5C])[sp].d(T)[sp].d(T)[sp].d([m5C])[sp].[moe]([m5C])[sp].[moe](A)p.[moe]([m5C])[sp].[moe]([m5C])}$$$$ (last 3' nucleoside missing),4 score 0-7
18,RNA1{[moe](G)[sp].[moe](G)p.[moe](A)p.[moe](G)p.[moe](A)[sp].d(T)[sp].d(T)[sp].d(A)[sp].d(T)[sp].d(T)[sp].d(T)[sp].d(A)[sp].d(G)[sp].d(T)[sp].d(G)[sp].[moe]([m5C])p.[moe]([m5C])p.[moe]([m5C])[sp].[moe](A)}$$$$ (last 3' nucleoside missing),6 score 0-7
19,RNA1{[moe](A)[sp].[moe](T)p.[moe](G)p.[moe]([m5C])p.[moe](T)[sp].d(T)[sp].d(T)[sp].d([m5C])[sp].d(A)[sp].d(T)[sp].d(A)[sp].d(G)[sp].d([m5C])[sp].d(T)[sp].d(T)[sp].[moe]([m5C])p.[moe]([m5C])p.[moe](A)[sp].[moe]([m5C])}$$$$ (last 3' nucleoside missing),0 score 0-7
20,RNA1{[moe](T)[sp].[moe](T)p.[moe](A)[sp].[moe](A)[sp].[moe](A)[sp].d(A)[sp].d(T)[sp].d([m5C])[sp].d(T)[sp].d(T)[sp].d([m5C])[sp].d(A)[sp].d(G)[sp].d(T)[sp].d(T)[sp].[moe]([m5C])[sp].[moe]([m5C])p.[moe](T)[sp].[moe](T)}$$$$ (last 3' nucleoside missing),0 score 0-7
21,RNA1{[moe](T)[sp].[moe](T)p.[moe](T)[sp].[moe]([m5C])[sp].[moe](A)[sp].d(T)[sp].d(T)[sp].d([m5C])[sp].d(G)[sp].d(G)[sp].d(T)[sp].d(T)[sp].d(A)[sp].d(T)[sp].d(A)[sp].[moe](A)[sp].[moe](G)p.[moe](G)[sp].[moe]([m5C])}$$$$ (last 3' nucleoside missing),7 score 0-7
22,RNA1{[moe](A)[sp].[moe](T)p.[moe](T)[sp].[moe](G)[sp].[moe]([m5C])[sp].d([m5C])[sp].d(A)[sp].d([m5C])[sp].d(T)[sp].d([m5C])[sp].d(A)[sp].d(T)[sp].d(G)[sp].d(A)[sp].d(G)[sp].[moe](G)[sp].[moe](A)p.[moe]([m5C])[sp].[moe](T)}$$$$ (last 3' nucleoside missing),4 score 0-7
23,RNA1{[moe](A)[sp].[moe](T)p.[moe](A)[sp].[moe](G)[sp].[moe]([m5C])[sp].d(T)[sp].d(T)[sp].d([m5C])[sp].d([m5C])[sp].d(A)[sp].d([m5C])[sp].d([m5C])[sp].d(A)[sp].d([m5C])[sp].d(A)[sp].[moe](A)[sp].[moe](T)p.[moe](A)[sp].[moe](T)}$$$$ (last 3' nucleoside missing),2 score 0-7
24,RNA1{[moe](A)[sp].[moe](A)p.[moe](G)[sp].[moe](T)[sp].[moe]([m5C])[sp].d([m5C])[sp].d(A)[sp].d(A)[sp].d(A)[sp].d(T)[sp].d(G)[sp].d(T)[sp].d(G)[sp].d(T)[sp].d([m5C])[sp].[moe](A)[sp].[moe](A)p.[moe](A)[sp].[moe]([m5C])}$$$$ (last 3' nucleoside missing),5 score 0-7
25,RNA1{[moe]([m5C])[sp].[moe](A)p.[moe](A)[sp].[moe](G)[sp].[moe](T)[sp].d([m5C])[sp].d([m5C])[sp].d(A)[sp].d(A)[sp].d(A)[sp].d(T)[sp].d(G)[sp].d(T)[sp].d(G)[sp].d(T)[sp].[moe]([m5C])[sp].[moe](A)p.[moe](A)[sp].[moe](A)}$$$$ (last 3' nucleoside missing),7 score 0-7
